This note sets out measurements from patent US20250197359A1, “CANNABINOID RECEPTOR MODULATING COMPOUNDS” (The U.S.A., as Represented by the Secretary, Department of …, priority 2022, published 2025).

Read-outs that look alike come from different tables or passages of the source.

For data set [1], the target named is T1, Brain/CB1 (Mus musculus, UniProt P47746).
T1 construct: from tissue; host or cells: mouse brain membranes
As to the kind of experiment: Functional GTPγS binding, Brain/CB1. The format is biochemical. In general terms: GTPγS resists hydrolysis and so accumulates on activated G proteins.

Data set [2] can be described thus: Caco-2 permeability (A-B and B-A). It counts as in vitro ADME. The settings on record: human.
A short description of data set [3]: Metabolic stability in human liver microsomes. The format is in vitro ADME. (Microsomes from liver hold many membrane-bound enzymes, among them those of drug oxidation.)
Data set [4] addresses CB1 (UniProt P21554). Briefly: CB1 radioligand binding assay. Further details: species or system human. Conditions: read-out: Ki (CB1). Put shortly:
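Radioligand binding to human CB1 stably expressed in CHO cells and to mouse brain membrane CB1 gave binding constants. For selected compounds, antagonism of CP55940-induced CB1 activation was measured in MPXNomad-CB1 HEK293 cells via cAMPNomad (cAMP) and ArresNomad (β-arrestin) fluorescent biosensors.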

Data set [5] can be described thus: Metabolic stability in mouse liver microsomes. The format is in vitro ADME.
The target in data set [6] is iNOS (Mus musculus, UniProt P29477). Briefly: Inducible NOS biochemical assay. The settings on record: for % Response (Inducible NOS): Mouse, 10 μM, criteria ≥ ±50%, preliminary data. The source says: Biochemical assay results are presented as the percent inhibition of specific binding or activity (iNOS, CAMP, beta arrestin).

By IC50 is commonly meant the concentration at which inhibition is half-maximal. High values mean a need for much substance, low ones inhibition by little substance. Broadly, the efflux ratio is the permeability from basolateral to apical divided by that in the opposite direction, in the common usage. Usually Ki stands for the equilibrium dissociation constant of an inhibitor or competing ligand from its target.

T1 sequence (P47746 whole entry): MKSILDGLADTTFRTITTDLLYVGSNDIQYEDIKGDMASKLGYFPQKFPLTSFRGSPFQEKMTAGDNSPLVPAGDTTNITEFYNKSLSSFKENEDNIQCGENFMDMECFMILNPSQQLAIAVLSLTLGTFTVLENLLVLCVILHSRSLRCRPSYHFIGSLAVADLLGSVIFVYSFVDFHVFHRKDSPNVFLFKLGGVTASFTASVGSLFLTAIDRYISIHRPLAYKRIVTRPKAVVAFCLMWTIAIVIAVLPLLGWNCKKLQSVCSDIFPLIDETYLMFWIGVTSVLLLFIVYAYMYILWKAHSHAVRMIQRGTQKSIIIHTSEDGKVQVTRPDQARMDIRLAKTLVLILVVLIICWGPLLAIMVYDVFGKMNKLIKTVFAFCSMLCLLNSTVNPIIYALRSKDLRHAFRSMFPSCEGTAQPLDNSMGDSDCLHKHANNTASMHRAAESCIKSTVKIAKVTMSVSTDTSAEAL

Take `CC(C)C(N/C(=N/S(=O)(=O)c1ccc(C(F)(F)F)cc1)N1CCC(c2ccccc2)C(c2ccc(Cl)cc2)=N1)C(N)=O` (single isomer, unassigned) [Compound 29b, (Z)-2-(3-(4-chlorophenyl)-4-phenyl-N′-((4-(trifluoromethyl)phenyl)sulfonyl)-1,4,5,6-tetrahydropyridazine-1-carboximidamido)-3-methylbutanamide]: the IC50 in data set [1] was 10 nM. The Papp A→B is 0.9 ×10⁻⁶ cm/s in data set [2] (Caco-2, mean, read-out: Papp (AB), 10^−6 cm/s, Mean); 0.9 ×10⁻⁶ cm/s in data set [2] (Caco-2, replicate 1, read-out: Papp (AB), 10^−6 cm/s, 1); 1 ×10⁻⁶ cm/s in data set [2] (Caco-2, replicate 2, read-out: Papp (AB), 10^−6 cm/s, 2). For the same molecule, the Papp B→A was 0.3 ×10⁻⁶ cm/s in data set [2] (Caco-2, mean, read-out: Papp (BA), 10^−6 cm/s, Mean); 0.3 ×10⁻⁶ cm/s in data set [2] (Caco-2, replicate 1, read-out: Papp (BA), 10^−6 cm/s, 1); 0.4 ×10⁻⁶ cm/s in data set [2] (Caco-2, replicate 2, read-out: Papp (BA), 10^−6 cm/s, 2). In addition, in data set [2] (Caco-2, quotient of Papp(BA) to Papp(AB)), the efflux ratio was found to be 0.4. Also, the “Clint” value amounted to 15 µL/min/mg in data set [3] and 883 µL/min/mg in data set [5]. Also, the results for the “t1/2, min” value in data set [3] and in data set [5] were 114.6 min and 1.9 min, respectively. Moreover, the inhibitory constant (Ki) in data set [4] stood at 2.7 nM.
`C/C(N)=N\C(=N\S(=O)(=O)c1ccc(Cl)cc1)N1CCC(c2ccccc2)C(c2ccc(Cl)cc2)=N1` (stereo not drawn) [Compound 10a, (Z)—N—((E)-1-aminoethylidene)-3-(4-chlorophenyl)-N′-((4-chlorophenyl)sulfonyl)-4-phenyl-5,6-dihydropyridazine-1 (4H)-carboximidamide] registered an IC50 in data set [1] of 138 nM. The “iNOS inhibition % Response” value in data set [6] is listed as 39%. Further, the Ki in data set [4] came to 76 nM.
As for `C/C(N)=N\C(=N\S(=O)(=O)c1ccc(OC(F)(F)F)cc1)N1CCC(c2ccccc2)C(c2ccc(Cl)cc2)=N1` (stereo not drawn) [Compound 10d, (Z)—N—((E)-1-aminoethylidene)-3-(4-chlorophenyl)-4-phenyl-N′-((4-(trifluoromethoxy)phenyl)sulfonyl)-5,6-dihydropyridazine-1 (4H)-carboximidamide], the 50% inhibitory concentration (IC50) in data set [1] is 104 nM. The “iNOS inhibition % Response” value in data set [6] was determined as 55%. For the same molecule, the Ki in data set [4] stood at 56.5 nM.
For `C/C(N)=N\C(=N\S(=O)(=O)c1ccc(C#N)cc1)N1CCC(c2ccccc2)C(c2ccc(Cl)cc2)=N1` (stereo not drawn) [Compound 10e, (Z)—N—((E)-1-aminoethylidene)-3-(4-chlorophenyl)-N′-((4-cyanophenyl)sulfonyl)-4-phenyl-5,6-dihydropyridazine-1 (4H)-carboximidamide], in that order: 338 nM, 43% and 77 nM.
`CC(C)/C(N)=N\C(=N\S(=O)(=O)c1ccc(C(F)(F)F)cc1)N1CCC(c2ccccc2)C(c2ccc(Cl)cc2)=N1` (stereo not drawn) [Compound 10m, (Z)—N—((E)-1-amino-2-methylpropylidene)-3-(4-chlorophenyl)-4-phenyl-N′-((4-(trifluoromethyl)phenyl)sulfonyl)-5,6-dihydropyridazine-1 (4H)-carboximidamide]: in data set [1], the IC50 was found to be 151 nM. Also, the “iNOS inhibition % Response” value in data set [6] is 55%. Moreover, the Ki in data set [4] came to 23 nM.
Molecule `N/C(=N\C(=N\S(=O)(=O)c1ccc(C(F)(F)F)cc1)N1CCC(c2ccccc2)C(c2ccc(Cl)cc2)=N1)C1CC1` (stereo not drawn) [Compound 10n, (Z)—N—((Z)-amino (cyclopropyl)methylene)-3-(4-chlorophenyl)-4-phenyl-N′-((4-(trifluoromethyl)phenyl)sulfonyl)-5,6-dihydropyridazine-1 (4H)-carboximidamide] gave an IC50 in data set [1] of 211 nM. Further, in data set [6], the “iNOS inhibition % Response” value was 55%. Moreover, in data set [4], the Ki is 44 nM.
In data set [1], `N/C(=N/C(=N/S(=O)(=O)c1ccc(C(F)(F)F)cc1)N1CCC(c2ccccc2)C(c2ccc(Cl)cc2)=N1)c1ccccc1Cl` (stereo not drawn) [Compound 10s, (Z)—N—((E)-amino (2-chlorophenyl)methylene)-3-(4-chlorophenyl)-4-phenyl-N′-((4-(trifluoromethyl)phenyl)sulfonyl)-5,6-dihydropyridazine-1 (4H)-carboximidamide] registered an IC50 of 19 nM. Also, the “iNOS inhibition % Response” value in data set [6] was found to be 24%. Besides, in data set [4], the Ki was 20.5 nM.
As for `CS/C(N)=N\C(=N\S(=O)(=O)c1ccc(C(F)(F)F)cc1)N1CCC(c2ccccc2)C(c2ccc(Cl)cc2)=N1` (stereo not drawn) [Compound 11b, methyl (Z)—N′—((Z)-(3-(4-chlorophenyl)-4-phenyl-5,6-dihydropyridazin-1 (4H)-yl)(((4-(trifluoromethyl)phenyl)sulfonyl)imino)methyl)carbamimidothioate], the half-inhibitory concentration (IC50) in data set [1] was determined as 125 nM. Besides, in data set [6], the “iNOS inhibition % Response” value was 56%. Also, in data set [4], the Ki was found to be 86.7 nM.
For `CCS/C(N)=N\C(=N/S(=O)(=O)c1ccc(C(F)(F)F)cc1)N1CCC(c2ccccc2)C(c2ccc(Cl)cc2)=N1` (stereo not drawn) [Compound 11i, ethyl (Z)—N′—((E)-(3-(4-chlorophenyl)-4-phenyl-5,6-dihydropyridazin-1 (4H)-yl)(((4-(trifluoromethyl)phenyl)sulfonyl)imino)methyl)carbamimidothioate], the IC50 in data set [1] stood at 640 nM. The “iNOS inhibition % Response” value in data set [6] is recorded as 66%. Also, the Ki in data set [4] stood at 99.7 nM.
On to `C[Se]/C(N)=N\C(=N\S(=O)(=O)c1ccc(C(F)(F)F)cc1)N1CCC(c2ccccc2)C(c2ccc(Cl)cc2)=N1` (stereo not drawn) [Compound 12b, methyl (Z)—N′—((Z)-(3-(4-chlorophenyl)-4-phenyl-5,6-dihydropyridazin-1 (4H)-yl)(((4-(trifluoromethyl)phenyl)sulfonyl)imino)methyl)carbamimidoselenoate], for which, in data set [6], the “iNOS inhibition % Response” value is 64%. Moreover, the Ki in data set [4] was 114 nM.
`O=S(=O)(/N=C(/N=C1\CCCCN1)N1CCC(c2ccccc2)C(c2ccc(Cl)cc2)=N1)c1ccc(C(F)(F)F)cc1` (stereo not drawn) [Compound 16, (Z)-3-(4-chlorophenyl)-4-phenyl-N—((E)-piperidin-2-ylidene)-N′-((4-(trifluoromethyl)phenyl)sulfonyl)-5,6-dihydropyridazine-1 (4H)-carboximidamide] displayed an IC50 in data set [1] of 104 nM. Besides, in data set [6], the “iNOS inhibition % Response” value is reported as 51%. The inhibition constant Ki in data set [4] was found to be 26 nM.
As for `C/C(N)=N\C(=N\S(=O)(=O)c1ccc(C(F)(F)F)cc1)N1CCC(c2ccccc2)C(c2ccc(Cl)cc2)=N1` (stereo not drawn) [drawing 16], the “% Response (Inducible NOS)” value in data set [6] is 64%.
Regarding `CS/C(N)=N\C(=N\S(=O)(=O)c1ccc(C(F)(F)F)cc1)N1CCC(c2ccccc2)C(c2ccc(Cl)cc2)=N1` (stereo not drawn) [drawing 17], in data set [6], the “% Response (Inducible NOS)” value was 56%.
On to `C[Se]/C(N)=N\C(=N\S(=O)(=O)c1ccc(C(F)(F)F)cc1)N1CCC(c2ccccc2)C(c2ccc(Cl)cc2)=N1` (stereo not drawn) [drawing 18], for which the “% Response (Inducible NOS)” value in data set [6] came out at 64%.
